Tested on: mouse primary cortical neurons, thapsigargin death, survival counting
Assay: neuroprotection against thapsigargin-induced death, late-stage follow-up, ER stress cell death inhibitors, imaging, mouse primary cortical neurons, immunostaining, death counting (AID 1386)
Settings: at 25 µM

With `COc1ccc(C2CC(=O)C3=C(C2)Nc2ccccc2NC3c2cccc(Oc3ccccc3)c2)cc1OC` (configuration not stated) the survival (stronger effect = higher value) was 87% and the survival (measured here: survival without thapsigargin) was 91%.

Source: PubChem BioAssay AID1386 (Sanford-Burnham Center for Chemical Genomics, 2008)
